Data set [1] is described as follows: Lipophilicity determination by HPLC (capacity factor k / calculated log k). Type of data set: physicochemical. The note with it: experimental lipophilicity. As to the method:
The lipophilicity determination was performed as described by Kapustikova et al..

In data set [2] the test system is Staphylococcus aureus ATCC 29213. Nature of the data set: In vitro antistaphylococcal susceptibility testing (MIC), reference strain. Type of data set: cell-based. As for the experimental part: (§1) The synthesized compounds were evaluated for in vitro antibacterial activity against representatives of multidrug-resistant bacteria, clinical isolates of methicillin-resistant Staphylococcus aureus (MRSA) 63718, SA 630 and SA 3202 [16, 17] that were obtained from the National Institute of Public Health (Prague, Czech Republic). S. aureus ATCC 29213 was used as the reference and quality control strain. Ampicillin (Sigma, St. Louis, MO, USA) was used as the standard. The screening was performed as described previously.

Data set [3] deals with methicillin-resistant S. aureus 63718. Nature of the data set: In vitro antibacterial evaluation (MIC), MRSA clinical isolate 63718. Type of data set: cell-based, Staphylococcus aureus. The note with it: Staphylococcus aureus. As for the experimental part:
as §1

In data set [4] the test system is methicillin-resistant S. aureus SA 630. As to the kind of experiment: In vitro antibacterial evaluation (MIC), MRSA clinical isolate SA 630. It counts as cell-based, Staphylococcus aureus. The note with it: Staphylococcus aureus, read-out: MIC MRSA SA 630. As for the experimental part:
as §1

The subject of data set [5] is methicillin-resistant S. aureus SA 3202. Nature of the data set: In vitro antibacterial evaluation (MIC), MRSA clinical isolate SA 3202. It counts as cell-based, Staphylococcus aureus. The note with it: Staphylococcus aureus, read-out: MIC MRSA SA 3202. As to the method:
as §1

Data set [6] deals with Mycobacterium tuberculosis H37Ra ATCC 25177. As to the kind of experiment: In vitro antimycobacterial evaluation (MIC), M. tuberculosis. It counts as cell-based. As for the experimental part: (§2) The evaluation of the in vitro antimycobacterial activity of the compounds was performed against Mycobacterium tuberculosis H37Ra ATCC 25177 and M. kansasii DSM 44162 by means of the methodology described recently [e.g., 1,3,4–6,15,43]. Isoniazid (Sigma) was used as the standard.

In a further data set the test system is M. kansasii DSM 44162. As to the kind of experiment: In vitro antimycobacterial evaluation (MIC), M. kansasii. Type of data set: cell-based, Mycobacterium kansasii. As for the experimental part: as §2
The test system of data set [7] is human monocytic leukaemia THP-1 cells. It counts as cell-based. The note with it: 30 µM highest concentration. As for the experimental part:
Human monocytic leukaemia THP-1 cells were obtained from the European Collection of Cell Cultures (ECACC, Salisbury, UK; Methods of characterization: DNA Fingerprinting (Multilocus probes) and isoenzyme analysis). Cell toxicity was determined using a Cytotoxicity Detection Kit^PLUS Lactate dehydrogenase (LDH) assay kit (Roche Diagnostics, Mannheim, Germany) according to the manufacturer’s instructions, as described previously.

In data set [8] the test system is photosynthetic electron transport (PET) in spinach (Spinacia oleracea L.) chloroplasts. Nature of the data set: Inhibition of photosynthetic electron transport (PET) in spinach chloroplasts. It counts as biochemical. As to the method:
The PET-inhibiting investigation using chloroplasts from spinach (Spinacia oleracea L.) was performed as described previously.

The test system of data set [9] is M. tuberculosis ATCC 25177/H37Ra. As to the kind of experiment: MTT assay, viability of M. tuberculosis. Type of data set: cell-based, Mycobacterium tuberculosis. The note with it: at tested MIC concentration; 7 days. As for the experimental part:
Compounds were prepared as previously stated and diluted in MH or MB broth for S. aureus to achieve the desired final concentrations 0.5 and 1 µg/mL, respectively, for S. aureus ATCC 29213, and 2 and 8 µg/mL, respectively, for M. tuberculosis ATCC 25177/H37Ra. M. tuberculosis ATCC 25177/H37Ra was suspended in ODAC supplemented MB at 1.0 McFarland and then diluted 1:10, using MB as a diluent. The diluted mycobacteria (50 µL) were added to each well containing the compound to be tested. S. aureus bacterial suspension in sterile distilled water at 0.5 McFarland was diluted 1:3. Inocula were added to each well by multi-inoculator. Diluted mycobacteria in broth free from inhibiting compounds were used as the growth control. All compounds were prepared in duplicate. […] The plates were read at 570 nm. The absorbance readings from the cells grown in the presence of the tested compounds were compared with uninhibited cell growth to determine the relative percent inhibition. The percent inhibition was determined through the MTT assay. The percent viability is calculated through the comparison of a measured value and that of the uninhibited control: % viability = OD570E/OD570P × 100, where OD570E is the reading from the compound-exposed cells, while OD570P is the reading from the uninhibited cells (positive control). Cytotoxic potential is determined by a percent viability of <70% [37, 38, 39, 52].
On the technique in general: Formazan colour is commonly taken as a measure of viable cells.

For the next data set, the system named is S. aureus ATCC 29213. The note with it: Staphylococcus aureus, 24 h.
Setting [10] is: clinical isolate MRSA 63718, read-out: MIC MRSA 63718.
Where [11] appears, read: one value for the three clinical MRSA strains (63718, SA 630, SA 3202), read-out: MIC against the MRSA strains.
Where [12] appears, read: Mycobacterium kansasii, DSM44162, M. kansasii DSM 44162, read-out: MIC MK.

In brackets after ≈: the same amount, converted by molar mass. Where two headings read alike, the source gives them in different places.

As to `COc1cc(NC(=O)c2ccc3ccccc3c2O)cc(OC)c1` [Compound 6, N-(3,5-dimethoxy-phenyl)-1-hydroxynaphthalene-2-carboxamide], the log k in data set [1] is 0.7048. The minimum inhibitory concentration (MIC) came out at 12.3 µM (≈ 3.98 µg/mL) in data set [2]; 12.3 µM (≈ 3.98 µg/mL) in data set [2] (ATCC29213); 24.7 µM (≈ 7.99 µg/mL) in data set [3] (MRSA, read-out: MIC MRSA 63718); 24.7 µM (≈ 7.99 µg/mL) in [3] (MRSA, read-out: MIC against the MRSA strains); 24.7 µM (≈ 7.99 µg/mL) in data set [4] (MRSA); 24.7 µM (≈ 7.99 µg/mL) in [5] (MRSA). Further, the MIC stood at 24.7 µM (≈ 7.99 µg/mL) in data set [6] and 24.7 µM (≈ 7.99 µg/mL) in the data set on M. kansasii DSM 44162 (Mycobacterium kansasii, DSM44162, read-out: MIC MK). In addition, the “Tox LD50” value in data set [7] was above 30 µM. The IC50 in [8] worked out at 13.4 µM.

As to `Cc1ccc(C)c(NC(=O)c2ccc3ccccc3c2O)c1` [Compound 11, N-(2,5-dimethylphenyl)-1-hydroxynaphthalene-2-carboxamide], the log k in [1] is given as 0.7155. The minimal inhibitory concentration (MIC) in data set [2] (ATCC29213) was 13.7 µM (≈ 3.99 µg/mL); in [3] (setting [10]) it was 27.5 µM (≈ 8.01 µg/mL); in data set [3] (setting [11]) it was 27.5 µM (≈ 8.01 µg/mL); in [4] (clinical isolate MRSA SA 630) it was 27.5 µM (≈ 8.01 µg/mL); in [5] (clinical isolate MRSA SA 3202), 27.5 µM (≈ 8.01 µg/mL); in [6], 110 µM (≈ 32 µg/mL). Besides, in the data set with M. kansasii DSM 44162 (setting [12]), the MIC stood at 220 µM (≈ 64.1 µg/mL). In addition, the “Tox LD50” value in data set [7] is above 30 µM. For the same compound, in [8], the midpoint of inhibition, the IC50, lay at 52.4 µM.

Regarding `Cc1cc(C)cc(NC(=O)c2ccc3ccccc3c2O)c1` [Compound 13, N-(3,5-dimethylphenyl)-1-hydroxynaphthalene-2-carboxamide], the log k in [1] is 1.0030. For the same compound, the minimal inhibitory concentration (MIC) in data set [2] was found to be 3.43 µM (≈ 0.999 µg/mL); in data set [2] (ATCC29213), 3.43 µM (≈ 0.999 µg/mL); in [3] (setting [10]), 6.85 µM (≈ 2 µg/mL); in [3] (setting [11]), 6.85 µM (≈ 2 µg/mL); in data set [4] (clinical isolate MRSA SA 630), 6.85 µM (≈ 2 µg/mL); in data set [5] (clinical isolate MRSA SA 3202), 6.85 µM (≈ 2 µg/mL). The MIC was determined as 6.86 µM (≈ 2 µg/mL) in [6] and 27.4 µM (≈ 7.98 µg/mL) in the data set with M. kansasii DSM 44162 (setting [12]). Further, the “Tox LD50” value in data set [7] was above 30 µM. This compound returned an IC50 in data set [8] of 8.19 µM. In addition, the “viability of M. tuberculosis H37Ra (MTT)” value in [9] is on record as 32%. Further, the “viability of S. aureus ATCC 29213 (MTT)” value in the data set with S. aureus ATCC 29213 came out at 19%.

On to `COc1ccc(Br)cc1NC(=O)c1ccc2ccccc2c1O` [Compound 20, N-(5-Bromo-2-methoxyphenyl)-1-hydroxynaphthalene-2-carboxamide], for which the melting point lay in the range of 157 to 159 °C. Also, the log k in [1] was 1.0432. In data set [2] (ATCC29213), the minimal inhibitory concentration (MIC) was 687 µM (≈ 256 µg/mL). Moreover, in data set [3] (setting [10]), the minimum inhibitory concentration (MIC) stood at 687 µM (≈ 256 µg/mL). Also, the MIC in data set [4] (clinical isolate MRSA SA 630) came out at 687 µM (≈ 256 µg/mL). In addition, in data set [5] (clinical isolate MRSA SA 3202), the MIC came to 687 µM (≈ 256 µg/mL). In [6], the MIC turned out to be 344 µM (≈ 128 µg/mL). In addition, the MIC with M. kansasii DSM 44162 (setting [12]) was 687 µM (≈ 256 µg/mL). The same compound displayed an IC50 in data set [8] of 569 µM.

With `COc1cc(F)cc(NC(=O)c2ccc3ccccc3c2O)c1` [Compound 23, N-(3-Fluoro-5-methoxyphenyl)-1-hydroxynaphthalene-2-carboxamide], the log k in [1] is recorded as 0.7629. Moreover, the MIC turned out to be 1.60 µM (≈ 0.498 µg/mL) in [2]; 1.6 µM (≈ 0.498 µg/mL) in [2] (ATCC29213); 3.21 µM (≈ 0.999 µg/mL) in data set [3] (setting [10]); 3.21 µM (≈ 0.999 µg/mL) in data set [3] (setting [11]); 3.21 µM (≈ 0.999 µg/mL) in [4] (clinical isolate MRSA SA 630); 3.21 µM (≈ 0.999 µg/mL) in [5] (clinical isolate MRSA SA 3202). The MIC in data set [6] is 25.6 µM (≈ 7.97 µg/mL); in the data set with M. kansasii DSM 44162 (M. kansasii DSM 44162, read-out: MIC MK), 12.0 µM (≈ 3.74 µg/mL); with M. kansasii DSM 44162 (setting [12]), 12 µM (≈ 3.74 µg/mL). Also, the “Tox LD50” value in data set [7] was above 30 µM. The midpoint of inhibition in data set [8], the IC50, lay at 10.1 µM. Moreover, the “viability of S. aureus ATCC 29213 (MTT)” value in the data set with S. aureus ATCC 29213 is given as 49%.

Turning to `CC[C@@]1(O)C(=O)OCc2c1cc1n(c2=O)Cc2cc3ccccc3nc2-1` [camptothecin, reference compound], the “Tox LD50” value in data set [7] was 0.16 ± 0.07 µM.

As usually defined, the MIC is the least concentration at which growth counts as inhibited. The IC50 is the concentration that inhibits the measured activity by half. A higher IC50 goes with lower potency. The term melting point denotes the temperature, or range, at which the solid turns liquid.

Values taken from article PMC6720605, “Bioactivity of Methoxylated and Methylated 1-Hydroxynaphthalene-2-Carboxanilides: Comparative Molecular Surface Analysis” (Molecules, 2019).
